These results are taken from PubChem BioAssay (NCI).

The structures appear in SMILES notation.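 Where inhibition never reached the appropriate level, the endpoint shown equals the highest concentration tested. Otherwise, values were interpolated linearly from a five-concentration, 48-hour dose response in 96-well plates. At the TGI there is no net growth.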

Holding throughout (assay): growth of human tumour cells (NCI), 48 h
The subject of assay [1] is BT-549 breast.
In assay [2] the test system is HCC-2998 colon.
Assay [3] relates to M14 melanoma.
The subject of assay [4] is MDA-N.
Assay [5] relates to NCI-H460 lung.
Assay [6] has as its system SNB-75 CNS.
The subject of assay [7] is SW-620 colon.
The subject of assay [8] is UACC-257 melanoma.
For assay [9], the system named is COLO 205 colon.
The test system of assay [10] is K-562 leukemia.

Turning to `CC(=O)Oc1ccc2cc(Oc3ccc(Cl)cc3)c(=O)oc2c1`, the TGI in [1] was 83.8 µM; in [2], greater than 100 µM; in [3] it was greater than 100 µM; in assay [4], 78.8 µM; in assay [5], greater than 100 µM; in assay [6], greater than 100 µM. In addition, the TGI in assay [7] was greater than 100 µM; in [8], 78.7 µM.
For `O=C1/C(=C/c2ccccc2S)N=C(c2ccccc2)N1c1ccc2c(c1)Sc1cc(N3C(=O)/C(=C/c4ccccc4S)N=C3c3ccccc3)ccc1N2`, the TGI is 73.5 µM in assay [1]; greater than 100 µM in assay [9]; 37.1 µM in [2]; 51 µM in assay [10]; 35 µM in assay [3]; 51.3 µM in assay [4]. Also, the TGI in assay [5] is 63.7 µM; in [6], 38.4 µM; in assay [7], 41.6 µM; in [8] it was 42.3 µM.
Take `Cc1ccc(Nc2nc(=O)[nH]c(=O)[nH]2)cc1N`: the TGI in assay [1], in assay [9], in assay [2], in assay [3], in assay [4] and in [5] was greater than 100 µM in each case. Also, the TGI in [6], in assay [7] and in assay [8] was greater than 100 µM in each case.
For `OC(CC(c1ccccc1)c1ccc(Cl)cc1)c1ccc(Cl)cc1` (stereo unspecified), the TGI in assay [1] was greater than 100 µM; in assay [9] it was 34.8 µM; in assay [2], greater than 100 µM; in assay [10] it was greater than 100 µM; in assay [3] it was greater than 100 µM; in assay [4], greater than 100 µM. Besides, the TGI in [5] was greater than 100 µM; in assay [6], 81.8 µM; in [7] it was greater than 100 µM; in assay [8], greater than 100 µM.
For `N#Cc1c(N)c(-c2ccc(Cl)cc2)c(F)c2ccccc12`, the TGI in [1], in [9], in [2], in assay [10], in assay [3] and in assay [4] was greater than 100 µM throughout. Also, the TGI in assay [5], in assay [6], in [7] and in [8] was greater than 100 µM in each case.
Turning to `O=C1/C(=C/c2cccc(Oc3ccccc3)c2)N=C(c2ccccc2)N1c1nc2ccc(Sc3ccccc3)cc2[nH]1`, the TGI in [1] is 55 µM; in assay [9], 31.5 µM; in [2], 26.3 µM; in assay [10], greater than 100 µM; in assay [3], 74.8 µM; in assay [4] it was 35.8 µM. In addition, the TGI in assay [5] is 64 µM; in assay [6], 60.4 µM; in [7], greater than 100 µM; in [8] it was 85.6 µM.
Consider `O=C1NC(=O)/C(=C\c2ccncc2)N1`, for which the TGI in assay [1], in assay [9], in [2], in [3], in assay [4] and in assay [5] was greater than 100 µM throughout. Moreover, the TGI in assay [6], in assay [7] and in assay [8] was greater than 100 µM throughout.
On to `Cc1ccc(-c2cc(-c3ccc(Cl)cc3)nc(/N=C3\C(=O)N(CN4CCCCC4)c4ccc(Cl)cc43)n2)cc1`, for which the TGI in assay [1] is greater than 100 µM; in [9], 80.5 µM; in assay [2], 29.7 µM; in assay [10], greater than 100 µM; in [3], 46.6 µM; in [4] it was 46.2 µM. Further, the TGI in assay [5] was greater than 100 µM; in assay [6], greater than 100 µM; in [7], greater than 100 µM; in assay [8], 71.1 µM.
Consider `C=CCc1c(O)c2ccccc2[nH]c1=O`, for which the TGI in assay [1], in assay [9], in assay [2], in assay [10], in assay [4] and in assay [5] was greater than 100 µM throughout. Besides, the TGI in [6], in assay [7] and in assay [8] was greater than 100 µM throughout.
As to `CCCCC[C@H](O)[C@H](C)C=C1SCCCS1`, the TGI in [1], in assay [9], in assay [2], in assay [10], in assay [3] and in assay [4] was greater than 100 µM in each case. Also, the TGI in assay [6], in assay [7] and in assay [8] was greater than 100 µM each time.
For the compound `C=C(CCOC)CCC1CCCCC(=C)C1=O` (stereo unspecified), the TGI in assay [1], in [9], in assay [2], in assay [10], in assay [3] and in [4] was greater than 100 µM in each case. For the same compound, the TGI in assay [5], in assay [6] and in assay [7] was greater than 100 µM throughout.
Regarding `Cn1c(N)c(/C=N/NC(=O)CC#N)c(=O)n(C)c1=O`, the TGI in assay [1], in assay [9], in assay [2], in assay [3], in [4] and in [5] was greater than 100 µM throughout. In addition, the TGI in assay [6], in [7] and in assay [8] was greater than 100 µM in each case.
As for `COc1ccc(C2CC(c3c(C)nn(-c4ccccc4)c3-c3ccc(C)cc3O)=NN2c2ccccc2)cc1` (stereo unspecified), the TGI in [1], in [9], in assay [2], in [10], in assay [3] and in assay [4] was greater than 100 µM in each case. Moreover, the TGI in assay [5] is greater than 41.7 µM; in assay [6] it was greater than 100 µM; in assay [7] it was greater than 100 µM; in assay [8], greater than 100 µM.
As to `O=[N+]([O-])c1ccc2nc3ccc([N+](=O)[O-])cn3c2c1`, the TGI in assay [1], in assay [9], in assay [10], in [3], in assay [4] and in assay [5] was greater than 100 µM in each case. The TGI in assay [6], in assay [7] and in assay [8] was greater than 100 µM each time.
For `O=C1CSC2(CC(/C=C/C=C/c3ccccc3)=NN2c2cccc(S(=O)(=O)O)c2)N1c1nc2ccccc2s1` (stereo unspecified), the TGI in assay [1], in assay [9], in assay [2], in [10], in [3] and in assay [4] was greater than 100 µM throughout. Also, the TGI in [5], in assay [6], in [7] and in assay [8] was greater than 100 µM each time.
`O=C(C[C@@H]1NCCC[C@H]1O)Cn1cnc2cc(Br)c(Cl)cc2c1=O`: the TGI in [1] is 0.259 µM; in assay [9], 0.0391 µM; in assay [2], 0.352 µM; in assay [10] it was 0.0727 µM; in [3], 0.0821 µM; in assay [4], 0.0881 µM. Also, the figures for the TGI in [5], in [6] and in assay [7] were greater than 100 µM, 0.338 µM and 0.209 µM, respectively.
Consider `Cc1ccc(S(=O)(=O)Nn2c(-c3ccccc3)c(C#N)c(-c3ccc([N+](=O)[O-])cc3)c(C#N)c2=O)cc1`, for which the TGI in assay [1], in assay [9], in assay [2], in [3], in assay [4] and in [5] was greater than 100 µM in each case. For the same compound, the TGI in assay [6], in assay [7] and in assay [8] was greater than 100 µM each time.
As to `CN(C)c1ccc(/C=C(\NC(=O)c2ccccc2)C(=O)Nc2ccccc2C(=O)NN2C(=O)CSC2c2ccc(N(C)C)cc2)cc1` (stereo unspecified), the TGI in assay [1] is greater than 100 µM; in assay [9] it was greater than 100 µM; in assay [2] it was 21.4 µM; in assay [10], greater than 100 µM; in [3], greater than 100 µM; in assay [4], greater than 100 µM. The TGI in assay [5] was 31.7 µM; in assay [6] it was greater than 100 µM; in assay [7] it was greater than 100 µM; in assay [8] it was 32.2 µM.
As for `COc1ccc(N2C(=O)C3c4[nH]c5ccc(C)cc5c4C4CCC(C(C)C)CC4C3C2=O)cc1` (stereo unspecified), the TGI in assay [1], in [9], in assay [2], in [10], in assay [3] and in [4] was greater than 100 µM each time. For the same compound, the TGI in assay [5] is greater than 100 µM; in assay [6] it was 74.2 µM; in assay [7], greater than 100 µM; in assay [8], greater than 100 µM.
As for `N#Cc1c(=O)c2cccnc2n2c1[nH]c1ccccc12`, the TGI in assay [1], in [9], in assay [2], in [10], in assay [3] and in assay [4] was greater than 100 µM in each case. Besides, the TGI in assay [5], in assay [6], in assay [7] and in assay [8] was greater than 100 µM each time.
In the case of `O=C1c2cc(Cl)ccc2-n2c(noc2=O)C2CSCN12` (stereo unspecified), the TGI in assay [1], in assay [9], in [2], in [10], in assay [3] and in [4] was greater than 100 µM each time. The TGI in assay [5], in assay [6], in [7] and in [8] was greater than 100 µM in each case.
In the case of `CC1(C)CC(=O)C(/C=N/c2nc(-c3ccc(Br)cc3)cs2)=C(O)C1`, the TGI in assay [1] is 37.8 µM; in [9], 99.2 µM; in [2] it was 80.9 µM; in [3] it was 48.4 µM; in assay [4], greater than 100 µM; in assay [5], greater than 100 µM. The results for the TGI in assay [6], in assay [7] and in [8] were 72.8 µM, greater than 100 µM and 38.3 µM, respectively.
On to `CCOC(=O)c1cc(-c2ccc(OC)c(OC)c2)c[nH]1`, for which the TGI in [1], in assay [9], in assay [2], in assay [10], in [3] and in assay [4] was greater than 10 µM throughout. In addition, the TGI in assay [5], in assay [6] and in assay [8] was greater than 10 µM in each case.
Take `COC(=O)Cc1c(C2=Nc3ccccc3C2(O)CC(=O)OC)[nH]c2ccccc12` (stereo unspecified): the TGI is greater than 100 µM in assay [1]; 52.3 µM in assay [9]; greater than 100 µM in assay [10]; greater than 100 µM in assay [3]; greater than 100 µM in [4]; greater than 100 µM in assay [5]. Further, the TGI in assay [6], in [7] and in [8] was greater than 100 µM each time.
Consider `O=C(Cc1nc2ccc(C(=O)c3ccccc3)cc2[nH]c1=O)C(=O)Nc1ccccc1[N+](=O)[O-]`, for which the TGI in assay [1], in assay [2], in assay [10], in assay [3], in assay [4] and in assay [5] was greater than 100 µM each time. Further, the TGI in assay [6], in assay [7] and in assay [8] was greater than 100 µM each time.
Consider `CC(=O)N(C(C)=O)n1c(Cc2ccc(Cl)cc2)nn(C(C)=O)c1=O`, for which the TGI in [1], in [9], in assay [2], in [10], in assay [3] and in assay [4] was greater than 100 µM throughout. Also, the TGI in assay [5], in assay [6] and in assay [7] was greater than 100 µM in each case.
As to `Oc1ccc(-c2c3c(nc4c2CCc2ccc(Br)cc2-4)-c2cc(Br)ccc2CC3)cc1`, the TGI in assay [1] is 43.1 µM; in assay [9], 32.4 µM; in assay [2] it was 40.1 µM; in assay [3] it was 55.1 µM; in assay [4], 40.7 µM; in assay [5], 53.2 µM. Moreover, the values for the TGI in assay [6] and in assay [8] were 54.9 µM and 69.4 µM, respectively.
In the case of `CCCCCCCCCCCCC(=O)NCC(=O)NC(Cc1ccccc1)C(=O)Oc1ccc([N+](=O)[O-])cc1` (stereo unspecified), the TGI is greater than 100 µM in assay [1]; 31.9 µM in assay [9]; greater than 100 µM in assay [2]; greater than 100 µM in assay [3]; greater than 100 µM in assay [4]; greater than 100 µM in assay [5]. For the same compound, the TGI in assay [6], in [7] and in assay [8] was greater than 100 µM in each case.
